Values of other authors, collected in US20170035825A1, “FOOD SUPPLEMENT COMPOSITION COMPRISING A CUCUMBER (CUCUMIS SATIVUS) EXTRACT” (NATURALEA SA, priority 2014, published 2017).

Tested on: uterus explants

## O=C(O)[C@@H]1NC[C@H](O)[C@@H](O)[C@@H]1O [ido-BR1, (2R,3R,4R,5S)-3,4,5-trihydroxypiperidine-2-carboxylic acid]
72 h
  effect on inflammation at 72 h: not significant
dose-dependent
  inflammation in the uterus explants: abrogated inflammation in the uterus explants
